The target in series [1] is T1, CCR4 (Homo sapiens, UniProt P51679).
T1 construct: expressed in transfected cells; host or cells: HEK293
T1 sequence (P51679 1-360): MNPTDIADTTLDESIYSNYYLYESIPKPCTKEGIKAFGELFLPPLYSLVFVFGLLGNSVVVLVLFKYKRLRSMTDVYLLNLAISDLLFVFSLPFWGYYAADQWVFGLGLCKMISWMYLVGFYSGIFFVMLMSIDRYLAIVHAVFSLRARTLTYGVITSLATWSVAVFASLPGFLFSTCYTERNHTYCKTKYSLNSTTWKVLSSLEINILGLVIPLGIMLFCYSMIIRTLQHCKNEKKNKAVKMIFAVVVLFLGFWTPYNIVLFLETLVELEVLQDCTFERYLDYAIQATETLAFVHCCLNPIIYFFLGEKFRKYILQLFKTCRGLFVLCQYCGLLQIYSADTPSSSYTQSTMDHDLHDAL
The series can be described thus: Calcium flow detected by FLIPR. The format is cell-based. The conditions noted are these: CCR4/HEK293 cells, agonist CCL17, Fluo-4 calcium signal. The procedure: CCR4/HEK293 cells were added to a 384-well cell culture plate (Greiner #781946) at a rate of 20 μL/well (20,000 cells/well) and incubated overnight in a 37° C., 5% CO2 incubator (Incubator, Thermo). On the second day, the 384-well cell culture plate was taken out of the incubator and the culture medium was removed; Then, 20 μL of detection buffer and 20 μL of 2X Fluo-4 Direct™ (Invitrogen, Cat #F10471) were added. Then, compounds were added at 10 μL/well (compounds were subjected to 4-fold serial dilution, and the highest detection concentration was 10 μM), and the cells were incubated in a 37° C., 5% CO2 incubator for 50 min, and then incubated at room temperature for 10 min. The 384-well culture plate was placed in FLIPR ([…]), 10 μL of 6X agonist CCL17 was added by using an automatic loader, and the fluorescence signal was read immediately. The mean and standard error (Mean±SEM) were statistically analyzed using Graphpad Prism software, and the IC50 value was calculated.
The experimental results are shown in Table 3, where A represents IC50<100 nm; B represents 100 nM≤IC50<500 nM, and C represents 500 nM≤IC50.

Series [2] can be described thus: Pharmacokinetic test in rats. The format is in vivo, SD rats. Particulars: for AUC / clearance / Vd: male, SD, rat, plasma; for Vd: read-out: Vdss. The procedure:
1.1 Experimental animals: male SD rats, about 220 g, 6-8 weeks old, 6 rats/compound. Purchased from Chengdu Ddossy Experimental Animals Co., Ltd.
1.2 Experimental design: on the day of the experiment, 36 SD rats were randomly grouped according to their body weights. The animals were fasted with water available for 12 to 14 h one day before the administration and were fed 4 h after the administration.
Before and after the administration, 0.15 ml of blood was taken from the orbit of the animals under isoflurane anesthesia and placed in an EDTAK2 centrifuge tube. The blood was centrifuged at 5000 rpm and 4° C. for 10 min to collect plasma. The blood collection time points for the intravenous administration group and intragastric administration group were: 0, 5 min, 15 min, 30 min, 1 h, 2 h, 4 h, 6 h, 8 h and 24 h. Before analysis and detection, all samples were stored at −80° C., and a quantitative analysis of samples was performed using LC-MS/MS.

The nature of series [3]: Pharmacokinetic test in monkeys. The conditions noted are these: for AUC(0-t) / clearance / Vd: male, cynomolgus monkey, plasma; for Vd: read-out: Vdss. The format is in vivo, cynomolgus monkeys. As for the experimental part:
Experimental animals: Male cynomolgus monkeys, 3-5 kg, 3-6 years old, 4 monkeys/compound. purchased from Suzhou Xishan Biotechnology Inc.
Experimental method: On the day of the experiment, 8 monkeys were randomly grouped according to their body weights. The animals were fasted with water available for 14 to 18 h one day before the administration, and were fed 4 h after the administration.
Before and after the administration, 1.0 mL of blood samples were drawn from the limb veins and placed in an EDTAK2 centrifuge tube. Centrifugation was carried out at 5000 rpm at 4° C. for 10 min, and the plasma was collected. The blood collection time points for the intravenous group and intragastric administration group were: 0 min, 5 min, 15 min, 30 min, 1 h, 2 h, 4 h, 6 h, 8 h, 10 h, 12 h, 24 h, and 48 h. Before analysis and detection, all samples were stored at −80° C., and a quantitative analysis of samples was performed using LC-MS/MS.

Series [4] is described as follows: Pharmacokinetic test in beagle dogs. The series is classed as in vivo. The conditions noted are these: for AUC(0-t) / clearance / Vd: male, beagle, dog, plasma; for Vd: read-out: Vdss. The procedure:
Experimental animals: male beagle dogs, about 8-11 kg, 6 beagle dogs/compound, purchased from Beijing Marshall Biotechnology Co., Ltd.
Experimental method: On the day of the experiment, 18 beagle dogs were randomly grouped according to their body weights. The animals were fasted with water available for 12 to 14 h one day before the administration and were fed 4 h after the administration.
Before and after the administration, 1 ml of blood was taken from the jugular veins or limb veins, and placed in an EDTAK2 centrifuge tube. Centrifugation was performed at 5000 rpm at 4° C. for 10 min, and plasma was collected. The blood collection time points for the intravenous group and intragastric administration group were: 0 min, 5 min, 15 min, 30 min, 1 h, 2 h, 4 h, 6 h, 8 h, 10 h, 12 h, 24 h, 48 h, and 72 h. Before analysis and detection, all samples were stored at −80° C. The samples were analyzed quantitatively by LC-MS/MS.

Series [5] can be described thus: Pharmacokinetic test in mice. The format is in vivo, C57 mice. The conditions noted are these: for AUC(0-t) / clearance / Vd: male, C57, mouse, plasma; for Vd: read-out: Vdss. The procedure: 1.1 Experimental animals: Male C57 mice, 20-25 g, 6 mice/compound. Purchased from Chengdu Ddossy Experimental Animals Co., Ltd.
1.2 Experimental design: On the day of the experiment, 24 C57 mice were randomly grouped according to their body weight. The animals were fasted with water available for 12 to 14 h one day before the administration and were fed 4 h after the administration.
Before and after the administration, 0.06 mL of blood was taken from the orbit of the animals under isoflurane anesthesia and placed in an EDTAK2 centrifuge tube. The blood was centrifuged at 5000 rpm and 4° C. for 10 min to collect plasma. The blood collection time points for the intravenous group and intragastric administration group were: 0 min, 5 min, 15 min, 30 min, 1 h, 2 h, 4 h, 7 h and 24 h. Before analysis and detection, all samples were stored at −80° C., and a quantitative analysis of samples was performed using LC-MS/MS.

Structures are written as SMILES.

One may read the IC50 as the concentration that inhibits the measured activity by half. A word on the AUC: it is concentration integrated over time. Lower therefore signals low exposure. One may read the clearance as the volume of plasma or blood freed of the substance per unit of time. A word on the AUC(0-t): it is exposure summed from dosing to a finite time, without extrapolation to infinity. Consider `Cc1nc(N2CC(C3CN(C4CC(C)(C(=O)O)C4)CCO3)C2)nc(NC(C)c2ccc(Cl)cc2Cl)c1Cl` (single isomer, unassigned) [Compound 9 isomer 3], for which the IC50 in series [1] is less than 100 nM. In addition, the F amounted to 98.7 ± 19% in series [2] (i.g. 10 mg/kg) and 72.8 ± 57% in series [3] (i.g. 5 mg/kg). The AUC turned out to be 6280 ± 402 ng·h/mL in series [2] (iv, i.v. 2.5 mg/kg) and 24800 ± 4810 ng·h/mL in series [2] (po, i.g. 10 mg/kg). The clearance turned out to be 6.61 ± 0.42 mL/min/kg in series [2] (iv, i.v. 2.5 mg/kg) and 2.44 ± 0.51 mL/min/kg in series [3] (iv, i.v. 1 mg/kg). Besides, the Vd in series [2] (iv, i.v. 2.5 mg/kg) is 1.49 ± 0.13 L/kg; in series [3] (iv, i.v. 1 mg/kg), 0.995 ± 0.088 L/kg. In addition, the AUC(0-t) is 6930 ± 1440 ng·h/mL in series [3] (iv, i.v. 1 mg/kg) and 25200 ± 19900 ng·h/mL in series [3] (po, i.g. 5 mg/kg).
In the case of `Cc1nc(N2CCC(C3CN(C4CC(C)(C(=O)O)C4)CCO3)CC2)nc(NC(C)c2ccc(Cl)cc2Cl)c1Cl` (single isomer, unassigned) [Compound 73 isomer 3], the F in series [4] (i.g. 3 mg/kg) was greater than 98%; in series [2] (i.g. 10 mg/kg) it was 80.3 ± 34%; in series [5] (i.g. 10 mg/kg), 90.4 ± 14%. Also, the AUC(0-t) stood at 12100 ± 3170 ng·h/mL in series [4] (iv, i.v. 1 mg/kg); 37700 ± 10100 ng·h/mL in series [4] (po, i.g. 3 mg/kg); 7400 ± 385 ng·h/mL in series [5] (iv, i.v. 2.5 mg/kg); 26800 ± 4110 ng·h/mL in series [5] (po, i.g. 10 mg/kg). Further, the clearance is 1.38 ± 0.4 mL/min/kg in series [4] (iv, i.v. 1 mg/kg); 9.19 ± 2.1 mL/min/kg in series [2] (iv, i.v. 2.5 mg/kg); 5.62 ± 0.29 mL/min/kg in series [5] (iv, i.v. 2.5 mg/kg). The Vd stood at 1.2 ± 0.16 L/kg in series [4] (iv, i.v. 1 mg/kg); 1.55 ± 0.091 L/kg in series [2] (iv, i.v. 2.5 mg/kg); 1.04 ± 0.055 L/kg in series [5] (iv, i.v. 2.5 mg/kg). Also, the 50% inhibitory concentration (IC50) in series [1] was less than 100 nM. In addition, the AUC in series [2] (iv, i.v. 2.5 mg/kg) was 4630 ± 1030 ng·h/mL; in series [2] (po, i.g. 10 mg/kg) it was 14900 ± 6380 ng·h/mL.
In turn, `CC(Nc1cc(N2CCC(C3CN(C4CC(C)(C(=O)O)C4)CCO3)CC2)ccc1Cl)c1ccc(Cl)cc1Cl` (single isomer, unassigned) [Compound 82 isomer 3] displayed a F in series [4] (i.g. 3 mg/kg) greater than 98%. Also, in series [4] (iv, i.v. 1 mg/kg), the AUC(0-t) was found to be 21100 ± 3840 ng·h/mL, the clearance turned out to be 0.672 ± 0.14 mL/min/kg and the Vd turned out to be 1.04 ± 0.2 L/kg. This molecule gave an exposure AUC(0-t) in series [4] (po, i.g. 3 mg/kg) of 68400 ± 7190 ng·h/mL. Also, the IC50 in series [1] is less than 100 nM.
On to `C[C@@H](Nc1cc(N2CC(C3CN(C4CC(C)(C(=O)O)C4)CCO3)C2)ccc1Cl)c1ccc(Cl)cc1Cl` (single isomer, unassigned) [Compound 83 isomer 1], for which, in series [1], the IC50 is less than 100 nM. Further, the F is greater than 98% in series [2] (i.g. 10 mg/kg), 91.6 ± 12% in series [5] (i.g. 10 mg/kg) and 76.8 ± 27% in series [3] (i.g. 5 mg/kg). Moreover, the AUC in series [2] (iv, i.v. 2.5 mg/kg) worked out at 7320 ± 1280 ng·h/mL; in series [2] (po, i.g. 10 mg/kg), 37000 ± 2820 ng·h/mL. Moreover, the clearance in series [2] (iv, i.v. 2.5 mg/kg) was found to be 5.53 ± 1 mL/min/kg; in series [5] (iv, i.v. 2.5 mg/kg), 5.69 ± 0.6 mL/min/kg; in series [3] (iv, i.v. 1 mg/kg), 1.02 ± 0.14 mL/min/kg. The Vd is 2.25 ± 0.27 L/kg in series [2] (iv, i.v. 2.5 mg/kg); 1.77 ± 0.069 L/kg in series [5] (iv, i.v. 2.5 mg/kg); 0.754 ± 0.15 L/kg in series [3] (iv, i.v. 1 mg/kg). Moreover, the AUC(0-t) in series [5] (iv, i.v. 2.5 mg/kg) turned out to be 7250 ± 726 ng·h/mL; in series [5] (po, i.g. 10 mg/kg), 26600 ± 3520 ng·h/mL; in series [3] (iv, i.v. 1 mg/kg) it was 15800 ± 1740 ng·h/mL; in series [3] (po, i.g. 5 mg/kg), 60700 ± 21600 ng·h/mL.
